Assays:
[1] = molecular target: T1, récepteur de l'angiotensine II (Rattus norvegicus, UniProt P25095); assay: Angiotensin II receptor binding test (displacement of 125I angiotensin II, rat liver membranes); conditions: fresh rat liver membrane preparation, incubation at 25°C for 150 minutes, read-out: CI50 (the source's name)
T1 construct: une préparation membranaire fraîche obtenue à partir de foie de rat; from tissue; host or cells: rat liver membranes
T1 sequence (P25095 1-359): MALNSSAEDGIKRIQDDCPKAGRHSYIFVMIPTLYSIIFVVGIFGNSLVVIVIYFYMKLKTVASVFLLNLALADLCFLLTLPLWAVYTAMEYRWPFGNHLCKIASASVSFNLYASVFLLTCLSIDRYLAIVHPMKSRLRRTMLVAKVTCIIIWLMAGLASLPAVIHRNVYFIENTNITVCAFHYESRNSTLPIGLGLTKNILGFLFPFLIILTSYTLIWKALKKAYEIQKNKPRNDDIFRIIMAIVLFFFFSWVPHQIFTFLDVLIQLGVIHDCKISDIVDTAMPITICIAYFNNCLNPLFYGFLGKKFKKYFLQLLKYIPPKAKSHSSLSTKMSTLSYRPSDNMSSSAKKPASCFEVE
Experimental: On utilise une préparation membranaire fraîche obtenue à partir de foie de rat. Le tissu est broyé au polytron dans un tampon Tris 50 mM pH 7,4 le broyage est suivi de 3 centrifugations à 30 000 g 15' avec reprises intermédiaires des culots dans le tampon Tris pH 7,4.
Les derniers culots sont remis en suspension dans un tampon d'incubation (Tris 20 mM, NaCl 135 mM, KCl 10 mM, glucose 5 mM, MgCl2 10 mM, fluorure de phényl méthyl sulfonyle 0,3 mM, bacitracine 0,1 mM, bis(triméthylsilyl) acétamide 0,2 %).
On répartit des fractions aliquotes de 2 ml dans des tubes à hémolyse et ajoute de la ^125I angiotensine II (25 000 DPM/tube) et le produit à étudier. (Le produit est d'abord testé à 3 x 10^-5M en triple). Lorsque le produit testé déplace de plus de 50 % la radioactivité liée spécifiquement au récepteur, il est testé à nouveau selon une gamme de 7 concentrations afin de déterminer la concentration qui inhibe de 50 % la radioactivité liée spécifiquement au récepteur. On détermine ainsi la concentration inhibitrice 50 %).
La liaison non spécifique est déterminée par addition d'un produit de référence soit le produit de l'exemple 94 du brevet européen 0253310 à 10^-5M (en triple). On incube à 25°C pendant 150 minutes, remet au bain-marie à 0°C, 5 minutes, filtre sous vide, rince au tampon Tris pH 7,4 et compte la radioactivité en présence du scintillant Triton. […]

[2] = test system: angiotensine II sur la veine porte isolée; assay: Angiotensin II antagonist activity on the isolated portal vein; type: cell-based, rats mâles Wistar; conditions: rat portal vein ring, angiotensin II 3.10^-8M, compound added 15 minutes before stimulation, verapamil 1.10^-6M in the bath; read-out: CI50 (the source's name)
Experimental: La veine porte est prélevée, sur des rats mâles Wistar (350 g environ) (IFFA Crédo Franc) après dislocation cervicale, et mise rapidement dans une solution physiologique (voir ci-dessous) à température ambiante. Un anneau de 1 mm environ est monté dans un bain à organe isolé contenant 20 ml de la solution physiologique suivante (composition en mM : NaCl 118,3 - KCl 4,7 - MgSO4 1,2 - KH2PO4 1,2 - NaHCO3 25 - glucose 11,1 - CaCl2 2,5) le milieu est maintenu à 37°C et oxygéné par un mélange O2 95 %, CO2 5 %. La tension initiale imposée est de 1 g, les anneaux sont laissés au repos pendant 60 à 90 minutes. Afin d'éviter les contractions spontanées, du vérapamil est ajouté au bain d'incubation (1.10^-6M).
A la fin de la période de repos l'angiotensine II (hypertensine Ciba) 3.10^-8M est ajoutée dans le bain d'incubation et laissée au contact de la préparation pendant 1 minute. Cette opération est répétée chaque 30 minutes, le tissu étant lavé 3 ou 4 fois entre deux stimulations à l'angiotensine. Le composé à étudier est introduit dans le bain 15 minutes avant une nouvelle stimulation par l'angiotensine. Des concentrations croissantes de la molécule étant appliquées, une CI50 (concentration qui produit une inhibition de 50 % de la réponse à l'angiotensine) peut être calculée, celle-ci est exprimée en nanomoles.

SMILES: CCCCc1nc2cccc(C(=O)O)c2n1Cc1ccc(-c2ccccc2C(=O)O)cc1 [Exemple 2, Acide 2-butyl 1-[(2'-carboxybiphényl-4-yl)méthyl] 1H-benzimidazole-7-carboxylique]
- IC50 [1]: 52 nM
- IC50 [2]: 9.5 nM
